Key:
Assay in all cases: Kinase selectivity profile assay
Format in all cases: biochemical
LIMK2 = molecular target: T1, LIMK2 (Homo sapiens, UniProt P53671); conditions: 500 nM; relative to DMSO; read-out: Residual enzymatic activity
T1 construct: purchased Reaction Biology Corporation
Procedure, shortened: (§1)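 Radiometric kinase assay run by a standard protocol. Unbound phosphate was removed by washing filters in phosphoric acid, and product radioactivity gave percent remaining kinase activity versus DMSO vehicle reactions. Run in duplicate.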

PKCtheta = molecular target: T2, PKCtheta (Homo sapiens, UniProt Q04759); conditions: 500 nM; relative to DMSO; read-out: Residual enzymatic activity
T2 construct: purchased Reaction Biology Corporation
Procedure, shortened: as §1

NEK5 = molecular target: T3, NEK5 (Homo sapiens, UniProt Q6P3R8); conditions: 500 nM; relative to DMSO; read-out: Residual enzymatic activity
T3 construct: purchased Reaction Biology Corporation
Procedure, shortened: as §1

PKAcb = molecular target: T4, PKAcb (Homo sapiens, UniProt P22694); conditions: 500 nM; relative to DMSO; read-out: Residual enzymatic activity
T4 construct: purchased Reaction Biology Corporation
Procedure, shortened: as §1

ALK4/ACVR1B = molecular target: T5, ALK4/ACVR1B (Homo sapiens, UniProt P36896); conditions: 500 nM; relative to DMSO; read-out: Residual enzymatic activity
T5 construct: purchased Reaction Biology Corporation
Procedure, shortened: as §1

TYRO3/SKY = molecular target: T6, TYRO3/SKY (Homo sapiens, UniProt Q06418); conditions: 500 nM; relative to DMSO; read-out: Residual enzymatic activity
T6 construct: purchased Reaction Biology Corporation
Procedure, shortened: as §1

PBK/TOPK = molecular target: T7, PBK/TOPK (Homo sapiens, UniProt Q96KB5); conditions: 500 nM; relative to DMSO; read-out: Residual enzymatic activity
T7 construct: purchased Reaction Biology Corporation
Procedure, shortened: as §1

TAK1 = molecular target: T8, TAK1 (Homo sapiens, UniProt O43318); conditions: 500 nM; relative to DMSO; read-out: Residual enzymatic activity
T8 construct: purchased Reaction Biology Corporation
Procedure, shortened: as §1

CK1a1 = molecular target: T9, CK1a1 (Homo sapiens, UniProt P48729); conditions: 500 nM; relative to DMSO; read-out: Residual enzymatic activity
T9 construct: purchased Reaction Biology Corporation
Procedure, shortened: as §1

PKN2/PRK2 = molecular target: T10, PKN2/PRK2 (Homo sapiens, UniProt Q16513); conditions: 500 nM; relative to DMSO; read-out: Residual enzymatic activity
T10 construct: purchased Reaction Biology Corporation
Procedure, shortened: as §1

SGK2 = molecular target: T11, SGK2 (Homo sapiens, UniProt Q9HBY8); conditions: 500 nM; relative to DMSO; read-out: Residual enzymatic activity
T11 construct: purchased Reaction Biology Corporation
Procedure, shortened: as §1

NEK6 = molecular target: T12, NEK6 (Homo sapiens, UniProt Q9HC98); conditions: 500 nM; relative to DMSO; read-out: Residual enzymatic activity
T12 construct: purchased Reaction Biology Corporation
Procedure, shortened: as §1

WNK2 = molecular target: T13, WNK2 (Homo sapiens, UniProt Q9Y3S1); conditions: 500 nM; relative to DMSO; read-out: Residual enzymatic activity
T13 construct: purchased Reaction Biology Corporation
Procedure, shortened: as §1

CDC7/DBF4 = molecular target: T14, CDC7/DBF4 (Homo sapiens, UniProt O00311); conditions: 500 nM; relative to DMSO; read-out: Residual enzymatic activity
T14 construct: purchased Reaction Biology Corporation
Procedure, shortened: as §1

PLK2 = molecular target: T15, PLK2 (Homo sapiens, UniProt Q9NYY3); conditions: 500 nM; relative to DMSO; read-out: Residual enzymatic activity
T15 construct: purchased Reaction Biology Corporation
Procedure, shortened: as §1

EPHA8 = molecular target: T16, EPHA8 (Homo sapiens, UniProt P29322); conditions: 500 nM; relative to DMSO; read-out: Residual enzymatic activity
T16 construct: purchased Reaction Biology Corporation
Procedure, shortened: as §1

BRAF = molecular target: T17, BRAF (Homo sapiens, UniProt P15056); conditions: 500 nM; relative to DMSO; read-out: Residual enzymatic activity
T17 construct: purchased Reaction Biology Corporation
Procedure, shortened: as §1

FGR = molecular target: T18, FGR (Homo sapiens, UniProt P09769); conditions: 500 nM; relative to DMSO; read-out: Residual enzymatic activity
T18 construct: purchased Reaction Biology Corporation (assay service)
Procedure, shortened: as §1

ACK1 = molecular target: T19, ACK1 (Homo sapiens, UniProt Q07912); conditions: 500 nM; relative to DMSO; read-out: Residual enzymatic activity
T19 construct: purchased Reaction Biology Corporation (assay service)
Procedure, shortened: as §1

MLK1/MAP3K9 = molecular target: T20, MLK1/MAP3K9 (Homo sapiens, UniProt P80192); conditions: 500 nM; relative to DMSO; read-out: Residual enzymatic activity
T20 construct: purchased Reaction Biology Corporation (assay service)
Procedure, shortened: as §1

MYO3b = molecular target: T21, MYO3b (Homo sapiens, UniProt Q8WXR4); conditions: 500 nM; relative to DMSO; read-out: Residual enzymatic activity
T21 construct: purchased Reaction Biology Corporation
Procedure, shortened: as §1

DDR2 = molecular target: T22, DDR2 (Homo sapiens, UniProt Q16832); conditions: 500 nM; relative to DMSO; read-out: Residual enzymatic activity
T22 construct: purchased Reaction Biology Corporation
Procedure, shortened: as §1

MUSK = molecular target: T23, MUSK (Homo sapiens, UniProt O15146); conditions: 500 nM; relative to DMSO; read-out: Residual enzymatic activity
T23 construct: purchased Reaction Biology Corporation
Procedure, shortened: as §1

MAPKAPK5/PRAK = molecular target: T24, MAPKAPK5/PRAK (Homo sapiens, UniProt Q8IW41); conditions: 500 nM; relative to DMSO; read-out: Residual enzymatic activity
T24 construct: purchased Reaction Biology Corporation
Procedure, shortened: as §1

PKG1b = molecular target: T25, PKG1b (Homo sapiens, UniProt Q13976); conditions: 500 nM; relative to DMSO; read-out: Residual enzymatic activity
T25 construct: purchased Reaction Biology Corporation
Procedure, shortened: as §1

STK32C/YANK3 = molecular target: T26, STK32C/YANK3 (Homo sapiens, UniProt Q86UX6); conditions: 500 nM; relative to DMSO; read-out: Residual enzymatic activity
T26 construct: purchased Reaction Biology Corporation
Procedure, shortened: as §1

PKCb1 = molecular target: T27, PKCb1 (Homo sapiens, UniProt P05771); conditions: 500 nM; relative to DMSO; read-out: Residual enzymatic activity
T27 construct: purchased Reaction Biology Corporation
Procedure, shortened: as §1

ERK7/MAPK15 = molecular target: T28, ERK7/MAPK15 (Homo sapiens, UniProt Q8TD08); conditions: read-out: Residual enzymatic activity
T28 construct: purchased Reaction Biology Corporation
Procedure, shortened: as §1

GLK/MAP4K3 = molecular target: T29, GLK/MAP4K3 (Homo sapiens, UniProt Q8IVH8); conditions: 500 nM; relative to DMSO; read-out: Residual enzymatic activity
T29 construct: purchased Reaction Biology Corporation
Procedure, shortened: as §1

CAMK2a = molecular target: T30, CAMK2a (Homo sapiens, UniProt Q9UQM7); conditions: 500 nM; relative to DMSO; read-out: Residual enzymatic activity
T30 construct: purchased Reaction Biology Corporation
Procedure, shortened: as §1

PKCd = molecular target: T31, PKCd (Homo sapiens, UniProt Q05655); conditions: 500 nM; relative to DMSO; read-out: Residual enzymatic activity
T31 construct: purchased Reaction Biology Corporation
Procedure, shortened: as §1

IRAK1 = molecular target: T32, IRAK1 (Homo sapiens, UniProt P51617); conditions: 500 nM; relative to DMSO; read-out: Residual enzymatic activity
T32 construct: purchased Reaction Biology Corporation
Procedure, shortened: as §1

WEE1 = molecular target: T33, WEE1 (Homo sapiens, UniProt P30291); conditions: 500 nM; relative to DMSO; read-out: Residual enzymatic activity
T33 construct: purchased Reaction Biology Corporation
Procedure, shortened: as §1

SIK3 = molecular target: T34, SIK3 (Homo sapiens, UniProt Q9Y2K2); conditions: 500 nM; relative to DMSO; read-out: Residual enzymatic activity
T34 construct: purchased Reaction Biology Corporation
Procedure, shortened: as §1

CK1d = molecular target: T35, CK1d (Homo sapiens, UniProt P48730); conditions: 500 nM; relative to DMSO; read-out: Residual enzymatic activity
T35 construct: purchased Reaction Biology Corporation
Procedure, shortened: as §1

CK1g2 = molecular target: T36, CK1g2 (Homo sapiens, UniProt P78368); conditions: 500 nM; relative to DMSO; read-out: Residual enzymatic activity
T36 construct: purchased Reaction Biology Corporation
Procedure, shortened: as §1

NEK9 = molecular target: T37, NEK9 (Homo sapiens, UniProt Q8TD19); conditions: 500 nM; relative to DMSO; read-out: Residual enzymatic activity
T37 construct: purchased Reaction Biology Corporation
Procedure, shortened: as §1

MSK2/RPS6KA4 = molecular target: T38, MSK2/RPS6KA4 (Homo sapiens, UniProt O75676); conditions: 500 nM; relative to DMSO; read-out: Residual enzymatic activity
T38 construct: purchased Reaction Biology Corporation
Procedure, shortened: as §1

ERBB2/HER2 = molecular target: T39, ERBB2/HER2 (Homo sapiens, UniProt P04626); conditions: 500 nM; relative to DMSO; read-out: Residual enzymatic activity
T39 construct: purchased Reaction Biology Corporation
Procedure, shortened: as §1

TYK1/LTK = molecular target: T40, TYK1/LTK (Homo sapiens, UniProt P29376); conditions: 500 nM; relative to DMSO; read-out: Residual enzymatic activity
T40 construct: purchased Reaction Biology Corporation
Procedure, shortened: as §1

T3 sequence (Q6P3R8 whole entry): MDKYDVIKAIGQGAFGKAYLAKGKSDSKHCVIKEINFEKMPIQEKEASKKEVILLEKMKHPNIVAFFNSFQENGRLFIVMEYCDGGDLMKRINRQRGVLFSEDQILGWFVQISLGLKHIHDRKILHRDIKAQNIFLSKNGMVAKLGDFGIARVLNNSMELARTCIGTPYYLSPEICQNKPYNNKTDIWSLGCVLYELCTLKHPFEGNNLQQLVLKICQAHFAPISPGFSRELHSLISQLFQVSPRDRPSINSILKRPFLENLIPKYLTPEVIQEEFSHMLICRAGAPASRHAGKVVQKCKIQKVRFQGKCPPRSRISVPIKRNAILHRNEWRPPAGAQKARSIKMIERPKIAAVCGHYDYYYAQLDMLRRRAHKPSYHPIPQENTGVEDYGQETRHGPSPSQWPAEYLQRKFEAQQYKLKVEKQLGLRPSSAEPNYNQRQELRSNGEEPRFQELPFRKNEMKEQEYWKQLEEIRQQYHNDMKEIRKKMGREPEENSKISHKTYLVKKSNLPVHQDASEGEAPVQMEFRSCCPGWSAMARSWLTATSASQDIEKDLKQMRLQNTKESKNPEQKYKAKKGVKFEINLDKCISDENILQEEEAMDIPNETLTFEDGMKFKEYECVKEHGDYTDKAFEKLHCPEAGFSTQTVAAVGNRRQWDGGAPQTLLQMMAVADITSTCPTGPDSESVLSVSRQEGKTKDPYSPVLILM
T1 sequence (P53671 whole entry): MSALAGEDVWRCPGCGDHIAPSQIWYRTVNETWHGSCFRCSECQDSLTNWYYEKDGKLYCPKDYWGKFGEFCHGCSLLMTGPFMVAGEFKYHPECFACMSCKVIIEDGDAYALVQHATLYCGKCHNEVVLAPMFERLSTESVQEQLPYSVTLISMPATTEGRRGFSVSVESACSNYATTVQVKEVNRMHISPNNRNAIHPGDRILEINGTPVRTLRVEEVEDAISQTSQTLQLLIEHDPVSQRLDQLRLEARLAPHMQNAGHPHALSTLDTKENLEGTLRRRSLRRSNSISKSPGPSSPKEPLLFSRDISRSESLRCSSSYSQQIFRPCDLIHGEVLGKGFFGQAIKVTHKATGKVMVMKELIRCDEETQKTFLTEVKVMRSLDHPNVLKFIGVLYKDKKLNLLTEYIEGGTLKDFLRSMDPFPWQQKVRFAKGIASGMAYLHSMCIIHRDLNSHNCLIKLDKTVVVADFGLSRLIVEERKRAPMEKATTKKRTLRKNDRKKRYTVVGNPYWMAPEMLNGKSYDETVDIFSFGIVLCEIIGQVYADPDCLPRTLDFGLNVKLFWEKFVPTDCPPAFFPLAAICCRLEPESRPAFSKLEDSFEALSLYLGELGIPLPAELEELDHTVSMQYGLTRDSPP
T9 sequence (P48729 whole entry): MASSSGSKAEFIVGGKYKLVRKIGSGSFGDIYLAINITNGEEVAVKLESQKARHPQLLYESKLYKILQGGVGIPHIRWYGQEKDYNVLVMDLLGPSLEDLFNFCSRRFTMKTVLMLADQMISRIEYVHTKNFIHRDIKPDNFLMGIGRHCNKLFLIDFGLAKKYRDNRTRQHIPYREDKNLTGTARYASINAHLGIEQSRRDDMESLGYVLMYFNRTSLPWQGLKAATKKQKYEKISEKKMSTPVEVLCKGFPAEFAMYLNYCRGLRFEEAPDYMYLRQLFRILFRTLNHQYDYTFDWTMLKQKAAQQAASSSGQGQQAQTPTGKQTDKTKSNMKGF
T20 sequence (P80192 whole entry): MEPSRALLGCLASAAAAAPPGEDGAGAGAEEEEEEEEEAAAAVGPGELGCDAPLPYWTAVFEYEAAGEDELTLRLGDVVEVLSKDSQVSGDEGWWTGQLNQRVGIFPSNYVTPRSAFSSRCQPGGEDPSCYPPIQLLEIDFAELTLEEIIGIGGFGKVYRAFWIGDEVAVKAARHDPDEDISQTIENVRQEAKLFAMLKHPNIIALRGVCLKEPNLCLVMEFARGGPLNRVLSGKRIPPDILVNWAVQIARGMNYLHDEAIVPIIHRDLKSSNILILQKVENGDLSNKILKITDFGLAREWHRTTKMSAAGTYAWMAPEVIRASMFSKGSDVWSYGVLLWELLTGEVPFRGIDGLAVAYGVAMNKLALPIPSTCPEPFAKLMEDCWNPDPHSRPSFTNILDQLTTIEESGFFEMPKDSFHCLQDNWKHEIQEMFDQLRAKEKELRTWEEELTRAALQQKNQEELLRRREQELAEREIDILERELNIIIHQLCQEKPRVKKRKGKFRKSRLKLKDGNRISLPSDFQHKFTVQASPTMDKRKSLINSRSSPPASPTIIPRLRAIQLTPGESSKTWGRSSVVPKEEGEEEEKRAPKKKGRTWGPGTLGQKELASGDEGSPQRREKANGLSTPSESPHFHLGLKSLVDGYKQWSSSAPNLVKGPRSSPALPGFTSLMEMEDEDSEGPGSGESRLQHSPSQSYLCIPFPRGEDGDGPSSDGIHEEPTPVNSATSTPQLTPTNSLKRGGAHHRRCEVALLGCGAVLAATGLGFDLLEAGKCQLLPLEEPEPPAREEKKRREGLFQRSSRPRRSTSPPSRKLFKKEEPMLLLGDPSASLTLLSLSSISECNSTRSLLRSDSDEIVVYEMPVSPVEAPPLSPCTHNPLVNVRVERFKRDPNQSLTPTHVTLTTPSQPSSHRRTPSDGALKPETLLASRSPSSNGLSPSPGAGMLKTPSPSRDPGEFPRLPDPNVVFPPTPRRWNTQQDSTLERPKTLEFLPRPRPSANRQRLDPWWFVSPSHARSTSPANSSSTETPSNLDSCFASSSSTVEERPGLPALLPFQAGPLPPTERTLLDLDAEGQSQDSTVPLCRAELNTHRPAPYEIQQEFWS
T24 sequence (Q8IW41 whole entry): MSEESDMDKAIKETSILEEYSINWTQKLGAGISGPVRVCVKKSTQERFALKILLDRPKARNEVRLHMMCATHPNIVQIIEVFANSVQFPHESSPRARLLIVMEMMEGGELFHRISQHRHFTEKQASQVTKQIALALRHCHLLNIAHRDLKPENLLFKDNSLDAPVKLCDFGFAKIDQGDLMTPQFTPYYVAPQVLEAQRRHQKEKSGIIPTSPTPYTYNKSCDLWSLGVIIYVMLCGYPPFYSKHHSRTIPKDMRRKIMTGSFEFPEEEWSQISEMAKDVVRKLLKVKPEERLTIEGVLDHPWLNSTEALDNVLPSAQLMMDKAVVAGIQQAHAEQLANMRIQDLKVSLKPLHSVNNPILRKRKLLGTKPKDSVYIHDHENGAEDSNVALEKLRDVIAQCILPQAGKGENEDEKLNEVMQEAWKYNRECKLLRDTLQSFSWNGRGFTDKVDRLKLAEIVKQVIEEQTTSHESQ
T8 sequence (O43318 1-303 limits assumed): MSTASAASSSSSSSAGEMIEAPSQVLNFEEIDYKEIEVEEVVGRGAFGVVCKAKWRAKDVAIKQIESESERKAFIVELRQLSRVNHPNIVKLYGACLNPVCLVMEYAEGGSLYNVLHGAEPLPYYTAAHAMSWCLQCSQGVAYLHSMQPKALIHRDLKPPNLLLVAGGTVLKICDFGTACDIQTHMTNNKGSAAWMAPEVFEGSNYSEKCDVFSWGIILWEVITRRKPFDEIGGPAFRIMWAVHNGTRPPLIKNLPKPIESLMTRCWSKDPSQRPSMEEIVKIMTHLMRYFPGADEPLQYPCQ
T39 sequence (P04626 23-1255): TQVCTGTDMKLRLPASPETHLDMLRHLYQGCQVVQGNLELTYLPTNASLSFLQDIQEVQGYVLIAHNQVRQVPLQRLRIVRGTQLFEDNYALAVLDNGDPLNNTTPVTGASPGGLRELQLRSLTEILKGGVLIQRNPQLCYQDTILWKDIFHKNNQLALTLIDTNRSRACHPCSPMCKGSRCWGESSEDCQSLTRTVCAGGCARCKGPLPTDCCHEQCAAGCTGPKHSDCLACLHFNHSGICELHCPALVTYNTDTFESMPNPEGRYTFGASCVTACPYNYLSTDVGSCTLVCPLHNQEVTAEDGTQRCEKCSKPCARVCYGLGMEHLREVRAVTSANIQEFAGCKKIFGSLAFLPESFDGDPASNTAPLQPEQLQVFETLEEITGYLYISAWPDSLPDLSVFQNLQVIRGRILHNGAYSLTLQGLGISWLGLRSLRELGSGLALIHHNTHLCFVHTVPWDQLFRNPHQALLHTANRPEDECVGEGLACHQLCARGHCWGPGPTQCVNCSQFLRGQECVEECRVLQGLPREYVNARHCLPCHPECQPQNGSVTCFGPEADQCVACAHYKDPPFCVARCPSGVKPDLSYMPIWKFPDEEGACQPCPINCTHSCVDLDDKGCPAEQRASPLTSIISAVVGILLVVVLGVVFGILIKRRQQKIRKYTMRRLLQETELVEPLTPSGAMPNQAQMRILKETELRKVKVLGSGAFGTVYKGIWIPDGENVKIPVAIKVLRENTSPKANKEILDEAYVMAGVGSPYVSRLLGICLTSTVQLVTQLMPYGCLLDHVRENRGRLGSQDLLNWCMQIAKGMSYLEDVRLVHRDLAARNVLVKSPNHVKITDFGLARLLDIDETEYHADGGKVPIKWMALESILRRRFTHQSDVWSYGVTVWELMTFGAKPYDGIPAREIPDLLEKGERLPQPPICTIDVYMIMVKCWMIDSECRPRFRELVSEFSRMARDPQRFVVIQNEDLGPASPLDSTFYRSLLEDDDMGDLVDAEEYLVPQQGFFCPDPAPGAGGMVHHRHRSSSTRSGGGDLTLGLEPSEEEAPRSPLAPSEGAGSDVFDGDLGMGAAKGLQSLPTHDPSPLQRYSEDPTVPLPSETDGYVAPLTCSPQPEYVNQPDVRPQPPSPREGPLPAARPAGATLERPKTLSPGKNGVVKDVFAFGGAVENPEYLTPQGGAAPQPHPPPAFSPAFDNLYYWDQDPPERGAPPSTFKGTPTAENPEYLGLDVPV

## COc1cc(Nc2ncc(F)c(Nc3ccc4c(n3)NC(=O)C(C)(C)O4)n2)cc(OC)c1OC [R406, reference compound]
LIMK2
  remaining activity at 0.5 µM: 77.5%
PKCtheta
  remaining activity at 0.5 µM: 99.5%
NEK5
  remaining activity at 0.5 µM: 27.1%
PKAcb
  remaining activity at 0.5 µM: 70.1%
ALK4/ACVR1B
  remaining activity at 0.5 µM: 133%
TYRO3/SKY
  remaining activity at 0.5 µM: 94.6%
PBK/TOPK
  remaining activity at 0.5 µM: 100%
TAK1
  remaining activity at 0.5 µM: 48.3%
CK1a1
  remaining activity at 0.5 µM: 95.5%
PKN2/PRK2
  remaining activity at 0.5 µM: 85.4%
SGK2
  remaining activity at 0.5 µM: 106%
NEK6
  remaining activity at 0.5 µM: 70.5%
WNK2
  remaining activity at 0.5 µM: 95.2%
CDC7/DBF4
  remaining activity at 0.5 µM: 82.6%
PLK2
  remaining activity at 0.5 µM: 19.4%
EPHA8
  remaining activity at 0.5 µM: 92.6%
BRAF
  remaining activity at 0.5 µM: 95.9%
FGR
  remaining activity at 0.5 µM: 15.7%
ACK1
  remaining activity at 0.5 µM: 0.6%
MLK1/MAP3K9
  remaining activity at 0.5 µM: 6.3%
MYO3b
  remaining activity at 0.5 µM: 94.1%
DDR2
  remaining activity at 0.5 µM: 31.5%
MUSK
  remaining activity at 0.5 µM: 62.1%
MAPKAPK5/PRAK
  remaining activity at 0.5 µM: 99.4%
PKG1b
  remaining activity at 0.5 µM: 98.6%
STK32C/YANK3
  remaining activity at 0.5 µM: 102%
PKCb1
  remaining activity at 0.5 µM: 63%
ERK7/MAPK15
  remaining activity at 0.5 µM: 77.1%
GLK/MAP4K3
  remaining activity at 0.5 µM: 65.8%
CAMK2a
  remaining activity at 0.5 µM: 94.4%
PKCd
  remaining activity at 0.5 µM: 97.7%
IRAK1
  remaining activity at 0.5 µM: 13.5%
WEE1
  remaining activity at 0.5 µM: 105%
SIK3
  remaining activity at 0.5 µM: 75.4%
CK1d
  remaining activity at 0.5 µM: 78.7%
CK1g2
  remaining activity at 0.5 µM: 101%
NEK9
  remaining activity at 0.5 µM: 2.5%
MSK2/RPS6KA4
  remaining activity at 0.5 µM: 97.7%
ERBB2/HER2
  remaining activity at 0.5 µM: 80.5%
TYK1/LTK
  remaining activity at 0.5 µM: 30.2%
